# Publication PMC10350920, “Development of a 2,4-Diaminothiazole Series for the Treatment of Human African Trypanosomiasis Highlights the Importance of Static–Cidal Screening of Analogues” (Journal of Medicinal Chemistry, 2023)
# “And” between values parts separate entries of the source, which are not always exact repeats. Equal values may be shown once. “Also recorded” adds a separate entry of the source. Read-outs that look alike come from different tables or passages of the source.
# What was measured:
# [1] = Mouse brain penetration (brain:blood ratio); assay type: in vivo, female NMRI mice; conditions: mice, bolus of test compound, total compound
# Procedure: Medicines for HAT are required to treat both acute and chronic infections, where parasites pass through the blood/brain barrier and enter the CNS. With this in mind, mice were dosed with an […] bolus of our test compounds, and compound concentrations in blood and brain were determined by UPLC–MS/MS. […] The brain fraction unbound was 0.0063 for 16 and 0.0313 for 38. Brain penetration of the series as a whole tracked with the generally accepted rules of CNS penetration, with a lower topological PSA (TPSA) and molecular weight compounds having an increased B/B ratio (Table S2 and Figure S1). However, the link between log P and the B/B ratio was slightly less convincing. […] This difference could be explained by 18 being a substrate for the P-glycoprotein efflux pump.
# Each compound was dosed as an IV bolus at 10 mg kg^–1 dissolved in 15% solutol/Milli-Q (dose volume 10 mL kg^–1) to female NMRI mice (n = 3). At 30 min following the IV bolus of the test compound, mice (n = 3/time point) were placed under terminal anesthesia with isoflurane. A blood sample was taken by cardiac puncture and added to two volumes of distilled water, and the brain was removed. […] For each mouse at each time point, the concentration in the brain (ng g^–1) was divided by the concentration in blood (ng mL^–1) to give a brain: blood ratio.
# [2] = Pharmacokinetics in NMRI mice; assay type: in vivo, female NMRI mice
# Procedure: To determine compound exposure, compounds were dosed by gavage (16, 38) at 10 mg kg^–1 free base (16, 38), dose volume; and 5 mL kg^–1 (16, 38), dose vehicle (10% DMSO/40% PEG400/50% Milli-Q) to female NMRI mice, n = 3/dose level (16), or Sprague Dawley rats (38). Blood samples were taken from each mouse/rat at 5, 15, and 30 min, 1, 2, 4, 6, and 8 h postdose and mixed with two volumes of distilled water. After suitable sample preparation, the concentration of the test compound in blood was determined by UPLC–MS/MS using a Quattro Premier XE (Waters, USA). Pharmacokinetic parameters were derived from the mean blood concentration–time curve using PKsolutions software v 2.0 (Summit Research Services, USA).
# [3] = Mouse liver microsomal intrinsic clearance; assay type: in vitro ADME
# Procedure, shortened: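 Compound (0.5 μM) incubated with liver microsomes (0.5 mg/mL, 50 mM potassium phosphate pH 7.4) and excess NADPH; samples quenched at 0–30 min and analysed by UPLC–MS/MS. Rate constant from exponential decay of compound/internal standard ratio; CLint scaled with 52.5 mg protein/g liver.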
# human MRC-5 fibroblasts = experiment: Mammalian cell counter screen (MRC-5); assay type: cell-based; conditions: for SI: selectivity index (EC50 MRC5/EC50 T. brucei)
# Procedure: (§1) Drug sensitivity assays with BSF T. b. brucei “single marker” S427 and human MRC-5 fibroblasts were conducted as previously described.[43]
# [4] = Equilibrium dialysis, free fraction in brain; assay type: in vitro ADME, mouse
# Procedure: In brief, a 96-well equilibrium dialysis apparatus was used to determine the free fraction in plasma and the brain (HT Dialysis LLC, Gales Ferry, CT). Isotonic buffer was prepared using 8.69 g of Na2HPO4, 1.9 g of KH2PO4, and 4.11 g of NaCl dissolved in 1 L of Milli-Q water, and the pH was adjusted to 7.4. Artificial CSF was prepared using 3.652 g of NaCl, 93.2 mg of KCl, 119.96 mg of MgCl2, 92.61 mg of CaCl2, and 268 mg of Na2HPO4 heptahydrate dissolved in 0.5 L of water, and the pH was adjusted to 7.4. Membranes [12–14 (plasma) or 6–9 (brain) kDA cutoff] were conditioned in deionized water for 60 min, followed by conditioning in 80:20 deionized water/ethanol for 20 min, and then rinsed in isotonic buffer (plasma) or […] (brain) before use. Female CD1 mouse plasma was defrosted and centrifuged for 10 min at 3000 rpm (Allegra X12-R, Beckman Coulter, USA). The control mouse brain was homogenized in two volumes of artificial CSF in a Covaris S2 acoustic homogenizer. […] All samples were analyzed by means of UPLC/MS/MS on a Quattro Premier XE or Micro TQs mass spectrometer (Waters Corporation, USA). The unbound fraction was determined as the ratio of the peak area in the buffer to that in the matrix.
# T. b. brucei S427 = experiment: Stage 1 efficacy study in NMRI mice; assay type: in vivo
# Procedure: Stage 1 efficacy experiments using T. b. brucei S427 were performed as described,[44] with minor modifications. In brief, male SD rats (38) or female HRN (16) and NMRI (16, 38) mice (3–5 per group) were injected intraperitoneally with 1 × 10^4 BSFs of T. brucei. These BSFs come from a stock of cryopreserved stabilates containing 10% glycerol. The stabilate was suspended in 20 mM Hanks’ balanced salt solution with glucose to obtain a trypanosome concentration of 5 × 10^4 cells mL^–1. Each mouse was injected with 0.2 mL. […] Dose concentrations were 1.25, 2.5, 5, 7.5, 10, 30, and 50 mg kg^–1 free base (16) or 100 mg kg^–1 free base (38). The doses were prepared fresh daily, using 5% DMSO/40% PEG400/55% Milli-Q (16) or 15% solutol/85% Milli-Q (38), and the dose volume was 10 mL kg^–1. One group of three mice was an untreated control group.
# [5] = test system: BSF T. b. brucei “single marker” S427; experiment: Drug sensitivity assay with bloodstream-form T. brucei; assay type: cell-based; conditions: for EC50: mean values, number of replicates in parentheses
# Procedure: as §1
# [6] = 100 mg kg^–1 IP, assuming linearity of exposure
compound,measurement,setting,value
"CC(C)(O)CC(=O)c1sc(Nc2ccc(F)c(F)c2)nc1N [Compound 38, 1-(4-Amino-2-((3,4-difluorophenyl)amino)thiazol-5-yl)-3-hydroxy-3-methylbutan-1-one]",Kp at 30 min,"[1]; female, NMRI, mouse, brain and blood, 10 mg kg^–1, read-out: brain/blood (B/B) ratio",1.4
same,"free Cmax in blood, extrapolated",[2]; [6],16 µM
same,"free Cmax, extrapolated",[2]; [6],5200 ng mL^–1
same,Cmax (total blood),"[2]; NMRI mice, IP, 50 mg kg^–1","18,000 ng mL^–1"
same,Cmax,"[2]; female, NMRI, mouse, whole blood, mice, IP, 50 mg kg^–1, read-out: total blood Cmax",55 µM
same,AUC,"[2]; female, mouse, whole blood, NMRI mice, IP, 50 mg kg^–1, read-out: AUC (converted)",31700 ng·h/mL
same,Tmax,"[2]; female, mouse, whole blood, NMRI mice, IP, 50 mg kg^–1, read-out: Tmax",30 min
same,"free Cmax in the brain, extrapolated","[2]; mice, 100 mg kg^–1 IP",4.6 µM
same,CLint (mouse),[3],2.2 mL·min/g
same,SI,human MRC-5 fibroblasts,256
same,"fraction unbound at 5 h, 10 μg mL^–1","[4]; mouse, brain homogenate, pH 7.4, read-out: brain free fraction (Fu, fraction unbound)",0.0313
same,"stage 1 efficacy, parasitemia",T. b. brucei S427; bid 4 days 100 mg kg^–1,no reduction in parasitemia
same,EC90,"[5]; Trypanosoma brucei, T. brucei",0.131 µg/mL and 400 nM
same,EC50,[5]; Trypanosoma brucei,180 nM
"(4-Amino-2-(cyclohexylamino)thiazol-5-yl)(2,6-difluorophenyl)methanone [Compound 16]",brain/blood (B/B) ratio,[1],3.3
same,AUC,"[2]; NMRI mice, IP, 10 mg kg^–1","66,000 ng mL h^–1"
same,Tmax,"[2]; NMRI mice, IP, 10 mg kg^–1",15 min
same,AUC,"[2]; NMRI mice, PO, 10 mg kg^–1",5700 ng mL h^–1
same,Cmax,"[2]; NMRI mice, PO, 10 mg kg^–1",33 ng mL^–1
same,Tmax,"[2]; NMRI mice, PO, 10 mg kg^–1",30 min
same,CLint (mouse),[3],15 mL·min/g
same,EC50,"human MRC-5 fibroblasts; mean values, number of replicates in parentheses, read-out: MRC-5 EC50",1200 nM
same,SI,human MRC-5 fibroblasts,11
same,"brain free fraction (Fu, fraction unbound)",[4]; brain,0.0063
same,stage 1 efficacy (cure = no parasitemia for 30 days),T. b. brucei S427; IP 10 mg kg^–1 twice daily for 4 days,complete cure; also recorded: efficacious
same,EC50,[5],110 nM
